ChEMBL document CHEMBL3885861, “Open TG-GATES”

Organism: Rattus norvegicus
Assay: Open TG-GATES - Regimen: Single
Type: toxicity, organism-based, Sprague-Dawley
Parameters: regimen Single, gender Male, age 6 weeks
Details: in vivo, po, 200 mg/kg, route gavage, dose level Middle; for APTT / Bas / Eos / Fbg / Hb / Ht / Lym / MCH / MCHC / MCV / Mono / Neu / PT / Plat / RBC / Ret / WBC: tissue Blood; for KIDNEY_L / KIDNEY_R / KIDNEY_TOTAL: tissue Kidney; for LIVER: tissue Liver; for A/G / ALP / ALT / AST / BUN / CRE / Ca / Cl / DBIL / GLC / IP / K / LDH / Na / PL / RALB / TBIL / TC / TG / TP / gamma-GTP: tissue Plasma

CCOC(=O)[C@H](CCc1ccccc1)N[C@@H](C)C(=O)N1CCC[C@H]1C(=O)O
TERMINAL_BW (3 h): 221.1 g | APTT (3 h): 15.6 s | Bas (3 h): 0% | Eos (3 h): 1% | Fbg (3 h): 207 mg/dL | Hb (3 h): 13.1 g/dL | Ht (3 h): 39.7% | Lym (3 h): 81.6% | MCH (3 h): 22.2 pg | MCHC (3 h): 33.1% | MCV (3 h): 67.1 fL | Mono (3 h): 5% | Neu (3 h): 12.4% | PT (3 h): 12 s | Plat (3 h): 117.9 x10_4/uL | RBC (3 h): 591.2 x10_4/ul | Ret (3 h): 9.1% | WBC (3 h): 93.8 x10_2/uL | KIDNEY_L (3 h): 1 g | KIDNEY_R (3 h): 1 g | KIDNEY_TOTAL (3 h): 2.1 g | LIVER (3 h): 10.4 g | A/G (3 h): 1.8 | ALP (3 h): 823.4 IU/L | ALT (3 h): 45.2 IU/L | AST (3 h): 67 IU/L | BUN (3 h): 21.2 mg/dL | CRE (3 h): 0.5 mg/dL | Ca (3 h): 10.8 mg/dL | Cl (3 h): 107.2 meq/L | DBIL (3 h): 0.01 mg/dL | GLC (3 h): 205.4 mg/dL | IP (3 h): 9.1 mg/dL | K (3 h): 5.5 meq/L | LDH (3 h): 101.8 IU/L | Na (3 h): 139 meq/L | PL (3 h): 129.8 mg/dL | RALB (3 h): 3.4 g/dL | TBIL (3 h): 0.3 mg/dL | TC (3 h): 72.2 mg/dL | TG (3 h): 82 mg/dL | TP (3 h): 5.3 g/dL | gamma-GTP (3 h): 1.6 IU/L | TERMINAL_BW (6 h): 215 g | APTT (6 h): 16.6 s | Bas (6 h): 0% | Eos (6 h): 1% | Fbg (6 h): 208.6 mg/dL | Hb (6 h): 13 g/dL | Ht (6 h): 39.7% | Lym (6 h): 75% | MCH (6 h): 21.2 pg | MCHC (6 h): 32.7% | MCV (6 h): 64.7 fL | Mono (6 h): 9.6% | Neu (6 h): 14.4% | PT (6 h): 11.9 s | Plat (6 h): 109.6 x10_4/uL | RBC (6 h): 615.4 x10_4/ul | Ret (6 h): 8.9% | WBC (6 h): 113.1 x10_2/uL | KIDNEY_L (6 h): 1 g | KIDNEY_R (6 h): 1 g | KIDNEY_TOTAL (6 h): 1.9 g | LIVER (6 h): 9.8 g | A/G (6 h): 2.1 | ALP (6 h): 770.4 IU/L | ALT (6 h): 43.2 IU/L | AST (6 h): 63.2 IU/L | BUN (6 h): 22 mg/dL | CRE (6 h): 0.5 mg/dL | Ca (6 h): 11 mg/dL | Cl (6 h): 105.6 meq/L | DBIL (6 h): 0.022 mg/dL | GLC (6 h): 195.4 mg/dL | IP (6 h): 10.4 mg/dL | K (6 h): 5.1 meq/L | LDH (6 h): 91.6 IU/L | Na (6 h): 139 meq/L | PL (6 h): 144.6 mg/dL | RALB (6 h): 3.6 g/dL | TBIL (6 h): 0.5 mg/dL | TC (6 h): 79.2 mg/dL | TG (6 h): 53.8 mg/dL | TP (6 h): 5.3 g/dL | gamma-GTP (6 h): 1.2 IU/L | TERMINAL_BW (9 h): 214.6 g | APTT (9 h): 15.7 s | Bas (9 h): 0% | Eos (9 h): 1.2% | Fbg (9 h): 207.2 mg/dL | Hb (9 h): 12.8 g/dL | Ht (9 h): 39.2% | Lym (9 h): 71.6% | MCH (9 h): 21.4 pg | MCHC (9 h): 32.6% | MCV (9 h): 65.4 fL | Mono (9 h): 10.2% | Neu (9 h): 17% | PT (9 h): 12.1 s | Plat (9 h): 108.6 x10_4/uL | RBC (9 h): 599.4 x10_4/ul | Ret (9 h): 8.8% | WBC (9 h): 88.4 x10_2/uL | KIDNEY_L (9 h): 1.1 g | KIDNEY_R (9 h): 1 g | KIDNEY_TOTAL (9 h): 2.1 g | LIVER (9 h): 8.8 g | A/G (9 h): 2.1 | ALP (9 h): 931.6 IU/L | ALT (9 h): 36.2 IU/L | AST (9 h): 65.8 IU/L | BUN (9 h): 25.8 mg/dL | CRE (9 h): 0.4 mg/dL | Ca (9 h): 10.8 mg/dL | Cl (9 h): 108 meq/L | DBIL (9 h): 0.03 mg/dL | GLC (9 h): 189.4 mg/dL | IP (9 h): 10.8 mg/dL | K (9 h): 5.2 meq/L | LDH (9 h): 83.8 IU/L | Na (9 h): 139.4 meq/L | PL (9 h): 120.4 mg/dL | RALB (9 h): 3.5 g/dL | TBIL (9 h): 0.4 mg/dL | TC (9 h): 69.4 mg/dL | TG (9 h): 32.2 mg/dL | TP (9 h): 5.2 g/dL | gamma-GTP (9 h): 2.2 IU/L | TERMINAL_BW (24 h): 230.9 g | APTT (24 h): 15.8 s | Bas (24 h): 0% | Eos (24 h): 1.8% | Fbg (24 h): 222.8 mg/dL | Hb (24 h): 13 g/dL | Ht (24 h): 39.2% | Lym (24 h): 71.2% | MCH (24 h): 21.4 pg | MCHC (24 h): 33.1% | MCV (24 h): 64.8 fL | Mono (24 h): 8.8% | Neu (24 h): 18% | PT (24 h): 10.8 s | Plat (24 h): 115.7 x10_4/uL | RBC (24 h): 606 x10_4/ul | Ret (24 h): 8.6% | WBC (24 h): 90.5 x10_2/uL | KIDNEY_L (24 h): 1.1 g | KIDNEY_R (24 h): 1 g | KIDNEY_TOTAL (24 h): 2.1 g | LIVER (24 h): 11.5 g | A/G (24 h): 2 | ALP (24 h): 915.2 IU/L | ALT (24 h): 38.6 IU/L | AST (24 h): 67.6 IU/L | BUN (24 h): 17.6 mg/dL | CRE (24 h): 0.5 mg/dL | Ca (24 h): 11 mg/dL | Cl (24 h): 103.2 meq/L | DBIL (24 h): 0 mg/dL | GLC (24 h): 198 mg/dL | IP (24 h): 8.4 mg/dL | K (24 h): 5 meq/L | LDH (24 h): 106.4 IU/L | Na (24 h): 137.8 meq/L | PL (24 h): 167.4 mg/dL | RALB (24 h): 3.8 g/dL | TBIL (24 h): 0.5 mg/dL | TC (24 h): 91 mg/dL | TG (24 h): 89 mg/dL | TP (24 h): 5.7 g/dL | gamma-GTP (24 h): 1.8 IU/L
